# In patent publication US8273797B2, “Treating renal cancer using 4-[bis[2-[(methylsulfonyl)oxy]ethyl]amino]-2-methyl-benzaldehyde” (The United States of America, as represented by the …, priority 2005, dated 2012):
# Where “and” joins values, the source holds several entries; their conditions need not be identical. Equal entries are not always repeated. Entries after “also recorded” stand apart in the source; their conditions may differ.
# Experiments:
# Dunning rat leukemia = details: Elderfield, private communication; no specific data disclosed; cited from earlier work
# [1] = system: A498 human renal tumor xenografts; test: Subcutaneous A498 xenograft tumor model; type: in vivo, athymic nude mice; details: NSC-281612 54 mg/kg Q4Dx3 from day 4 post implantation, compared with NSC-281817 120 mg/kg
# Protocol: Tumor cells (e.g., A498 and RXF-393) were derived from established tumors maintained by serial passage in mice for a maximum of 10 passages. […] Male mice were used in all experiments. All animals were provided by NCI contractors at the NCI-Frederick production facility or Taconic Laboratories (Germantown, N.Y.).
# (§1) Intraperitoneal drug treatment schedules were established from the tumor doubling times because pharmacological data were not available. The dose levels were determined by establishing a single injection maximum tolerated dose (MTD) from which the experimental doses were calculated as: dose (mg/kg)=[(1.5×MTD)/no. of doses to be given]. Each experiment consisted of 20 control mice (based on statistical need) that received dosing vehicle (saline+0.05% Tween 80) on the same schedule as used for the test articles. Each treated group contained six mice. Tumor volumes were measured two to three times weekly and the tumor weights were calculated using the formula for a prolate ellipsoid: tumor weight (mg)={[length (in mm)]×[width (in mm)]^2}/2. The control tumors reached 500 mm^3 in 27 days for A498 and 12 days for RXF-393.
# Human tumor xenografts were generated by injection of 1×10^7 A498 tumor cells subcutaneously into athymic nude male mice. […] The tumor weight was calculated every fourth day beginning at day 7. […]
# [2] = system: RXF-393 human renal tumor cells; test: Orthotopic intrarenal RXF-393 tumor model; type: in vivo, mice; details: for Median Tumor Weight (mg, Day 23) / T/C (%) / Median Tumor Weight (mg, Day 27): Rt. IV
# [3] = Toxicity (mortality, body weight loss, tolerability) in mice bearing intrarenal RXF-393 tumors; type: in vivo
# Protocol: as §1
# RXF-393 cells were injected directly into the caudal pole of the kidney on Day 0. The inoculated kidney was monitored for tumor growth in treated versus control mice by collecting and weighing the kidneys on day 25 post-implantation. In a preliminary experiment, NSC-281612 was administered intraperitoneally (IP) every fourth day for a total of 5 treatments (Q4D×5) starting 4 days after tumor implantation. […] In this study, NSC-281612 was assessed at 25 mg/kg (Group 2), 16.8 mg/kg (Group 3) and 11.3 mg/kg (Group 4). Due to toxicity, the 25 mg/kg dose was lowered to 8.3 mg/kg and only 4 doses were administered to Groups 2 and 3 (see Table 1).
# To assess the impact of drug administration route, an experiment was conducted in which NSC-281612 was administered at doses of 8 mg/kg, 4 mg/kg and 2 mg/kg given intravenously (IV) on a Q4D×5 schedule with the first treatment given on day 4 post-tumor implantation. […] See, Table 2 for results and FIG. 6 for individual renal tumor weights for mice administered control only (vehicle), 8 mg/kg, 4 mg/kg, or 2 mg/kg intravenously on a Q4D×5 schedule.
# RCC tumor cell lines = details: cited from earlier work
# xenograft = details: mouse, in vivo; cited from earlier work
# [4] = 2 mg/kg/dose IV Q4Dx5 from day 4
# [5] = 4 mg/kg/dose IV Q4Dx5 from day 4
# [6] = 8 mg/kg/dose IV Q4Dx5 from day 4
# [7] = Group 2: 25 mg/kg Q4Dx3 and a final dose of 8.3 mg/kg IP
compound,measurement,setting,value
"Cc1cc(N(CCOS(C)(=O)=O)CCOS(C)(=O)=O)ccc1C=O [NSC-281612, 4-[bis[2-[(methylsulfonyl)oxy]ethyl]amino]-2-methyl-benzaldehyde]",activity against Dunning rat leukemia,Dunning rat leukemia,possesses activity against Dunning rat leukemia
same,median tumor weight (effectiveness in limiting tumor weight),[1],at least as effective in limiting tumor weight as NSC-281617
same,reduction in tumor mass,[2]; 2 mg/kg/dose IV Q4Dx5,did not achieve a level of statistical significance
same,Day 22 Tumor Weight average,[2]; [4],270 mg
same,Day 22 Tumor Weight median,[2]; [4],284 mg
same,"Median Tumor Weight (mg, Day 23)","[2]; 3.4 mg/kg/dose, QDx5, D5",11.5 mg
same,T/C (%),"[2]; 3.4 mg/kg/dose, QDx5, D5, Day 23",3%
same,Day 22 Tumor Weight average,[2]; [5],31 mg
same,Day 22 Tumor Weight median,[2]; [5],7 mg
same,tumor free animals,[2]; 5 mg/kg/dose IP Q4Dx5,no tumor free animals
same,tumor mass compared to the controls,[2]; 5 mg/kg/dose IP Q4Dx5,significant reduction in tumor mass
same,"Median Tumor Weight (mg, Day 23)","[2]; 5 mg/kg/dose, QDx5, D5",0 mg
same,T/C (%),"[2]; 5 mg/kg/dose, QDx5, D5, Day 23",0%
same,"Median Tumor Weight (mg, Day 23)","[2]; 7.5 mg/kg/dose, QDx5, D5",0 mg
same,T/C (%),"[2]; 7.5 mg/kg/dose, QDx5, D5, Day 23",0%
same,Day 22 Tumor Weight average,[2]; [6],1 mg
same,Day 22 Tumor Weight median,[2]; [6],0 mg
same,reduction in tumor weights,[2]; 8 mg/kg/dose and 4 mg/kg/dose IV Q4Dx5,statistically significant reductions in the tumor weights
same,"Median Tumor Weight (mg, Day 27)","[2]; 25 mg/kg/dose, QDx1, D1O",0 mg
same,T/C (%),"[2]; 25 mg/kg/dose, QDx1, D1O, Day 27",0%
same,"Median Tumor Weight (mg, Day 27)","[2]; 25 mg/kg/dose, QDx1, D5",340 mg
same,T/C (%),"[2]; 25 mg/kg/dose, QDx1, D5, Day 27",94%
same,"Median Tumor Weight (mg, Day 27)","[2]; 25 mg/kg/dose, QDx1, D15",1 mg
same,T/C (%),"[2]; 25 mg/kg/dose, QDx1, D15, Day 27",0%
same,tumor burden at day 25 post-implantation,"[2]; IP Q4Dx5 starting day 4, 25, 16.8 and 11.3 mg/kg (Groups 2-4)",markedly reduced the tumor burden; also recorded: active against intrarenal RXF-393 tumors at several doses
same,decrease in tumor weight,"[2]; daily dose for five sequential days, doses as low as 3.4 mg/kg/dose",statistically significant decrease in tumor weight
same,efficacy of single dose,[2]; single 25 mg/kg dose on day 5 post-tumor implantation,ineffective
same,animals with no detectable tumor,[2]; single 25 mg/kg dose on day 10 or 15 post-tumor implantation,seven often
same,tolerability,"[3]; 8, 4 and 2 mg/kg IV Q4Dx5 from day 4",well tolerated
same,average weight loss,[3]; [7],27%
same,mortality,[3]; [7],no mortality
same,mortality,"[3]; Group 3: 16.8 mg/kg Q4Dx5 IP, 16.8 mg/kg",no mortality and 16.8 mg NSC-281612/kg Q4Dx5 IP. There was no mortality
same,mortality,"[3]; Group 4: 11.3 mg/kg Q4Dx5 IP, 11.3 mg/kg",no mortality and 11.3 mg NSC-281612/kg Q4Dx5 IP. There was no mortality
Cc1cc(N(CCOS(C)(=O)=O)CCOS(C)(=O)=O)ccc1C=Nc1ccc(-c2nc(Cc3ccccc3)sc2C)cc1 [NSC-281817],in vitro activity against RCC tumor cell lines,RCC tumor cell lines,having in vitro activity
same,antitumor activity in xenograft-bearing mice,xenograft,only modest
CS(=O)(=O)OCCN(CCOS(C)(=O)=O)c1ccc(C=Nc2ccc(-c3csc(COc4ccccc4)n3)cc2)cc1 [compound 280074],in vitro activity against RCC tumor cell lines,RCC tumor cell lines,having in vitro activity
same,antitumor activity in xenograft-bearing mice,xenograft,only modest
Cc1cc(N(CCOS(C)(=O)=O)CCOS(C)(=O)=O)ccc1C=Nc1ccc(-c2csc(-c3ccccc3)n2)c(Cl)c1 [compound 281613],in vitro activity against RCC tumor cell lines,RCC tumor cell lines,having in vitro activity
same,antitumor activity in xenograft-bearing mice,xenograft,only modest
